Structures can show the parent of a compound that is named as a salt.
Assays:
Assay type in all cases: physicochemical
[1] = Exposure in controlled humidity cells, 7 days at room temperature, tested by XRD and KF titration; design: Water content: unit not given here; conditions: for Water content: KF titration
Experimental: 200 mg of Fexofenadine HCl Form XVI was spread as a thin layer on an open dish, and then put in controlled humidity cells of 0, 20, 40, 60 and 80% RH for 7 days at room temperature. The samples were tested by XRD and by KF titration.

[2] = Microscope observation of particle morphology; conditions: hydrochloride
Excerpt: The morphology of an active pharmaceutical substance plays an important role in drug performance, and has a profound impact on handling during milling processes and during drug product manufacturing. […].

[3] = Exposure of Form XX in controlled humidity cells, 9 days at 30 C, tested by XRD
[4] = Heating under atmospheric pressure, then tested by XRD; conditions: 10 h

Row | Structure (SMILES) | Water content ([1]; 0% RH) | Crystal Form content by XRD ([1]; 0% RH, hydrochloride) | Water content ([1]; 20% RH) | Crystal Form content by XRD ([1]; 20% RH, hydrochloride) | Water content ([1]; 40% RH) | Crystal Form content by XRD ([1]; 40% RH, hydrochloride) | Water content ([1]; 60% RH) | Crystal Form content by XRD ([1]; 60% RH, hydrochloride) | Crystal Form content by XRD ([1]; 80% RH) | Water content ([1]; 80% RH) | other results
1 | CC(C)(C(=O)O)c1ccc(C(O)CCCN2CCC(C(O)(c3ccccc3)c3ccccc3)CC2)cc1 (centres unmarked) [mixture of Fexofenadine HCl Form XVI and Fexofenadine HCl Fo] [fexofenadine hydrochloride] | 4.2 | 85% XVI, 15% Form XX | 7.0 | 93% XVI, 7% Form XX | 7.3 | 96% XVI, 4% Form XX | 7.3 | 96% XVI, 4% Form XX | XVI | 8.3 | 
2 | CC(C)(C(=O)O)c1ccc(C(O)CCCN2CCC(C(O)(c3ccccc3)c3ccccc3)CC2)cc1 (centres unmarked) [Fexofenadine HCl form I, fexofenadine hydrochloride, reference compound] |  |  |  |  |  |  |  |  |  |  | Particle morphology ([2]; listed as fexofenadine HCl form I): needles morphology
3 | CC(C)(C(=O)O)c1ccc(C(O)CCCN2CCC(C(O)(c3ccccc3)c3ccccc3)CC2)cc1 (centres unmarked) [Fexofenadine HCl Form XX, fexofenadine hydrochloride] |  |  |  |  |  |  |  |  |  |  | Crystal Form content by XRD ([3]; 40% RH): XVI + XX; Water content ([3]; 40% RH): 4.9; Crystal Form content by XRD ([3]; 60% RH): XVI + XX; Water content ([3]; 60% RH): 5.2; Crystal Form content by XRD ([3]; 80% RH): XVI; Water content ([3]; 80% RH): 7.8; Particle morphology ([2]; listed as fexofenadine HCl form XX): small rod shape particles
4 | CC(C)(C(=O)O)c1ccc(C(O)CCCN2CCC(C(O)(c3ccccc3)c3ccccc3)CC2)cc1 (centres unmarked) [Fexofenadine HCl Form XVI, fexofenadine hydrochloride] | 4.2 | mixture of Fexofenadine HCl Form XVI and Fexofenadine HCl Form XX | 7.0 | XVI | 7.3 | XVI | 7.3 | XVI | XVI | 8.3 | Resulted Form ([4]; 65 C.): XVI; Resulted Form ([4]; 80 C.): XVI + Amorphous; Resulted Form ([4]; 100 C., hydrochloride): mixture of Fexofenadine HCl Form XVI and amorphous Form; Resulted Form ([4]; 100 C., listed as XVI, hydrochloride): XVI + Amorphous
